Test results: PubChem BioAssay AID330 (DTP/NCI, 2004)
Inconclusive results and toxic doses are left out.

Test system: P388 leukemia ip, CD2F1 mice, survival T/C
Test: NCI In Vivo Anticancer Drug Screen. Data for tumor model P388 Leukemia (intraperitoneal) in CD2F1 (CDF1) mice
Details: endpoint: median survival time, higher = longer survival
Method in brief: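 Mice carrying the transplanted tumor received test compound or vehicle. Survival was recorded in each group, and the value is the treated-group measurement divided by that of the vehicle-treated control group.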

[1] = dose: 50.0 mg/kg/injection, schedule: Q01DX005 (ip), vehicle: Klucel (hydroxypropylcellulose) (HPC)
[2] = dose: 100.0 mg/kg/injection, schedule: Q01DX005 (ip), vehicle: Klucel (hydroxypropylcellulose) (HPC)
[3] = dose: 200.0 mg/kg/injection, schedule: Q01DX005 (ip), vehicle: Klucel (hydroxypropylcellulose) (HPC)
[4] = dose: 50.0 mg/kg/injection, schedule: Q01DX009 (ip), vehicle: Klucel (hydroxypropylcellulose) (HPC)
[5] = dose: 100.0 mg/kg/injection, schedule: Q01DX009 (ip), vehicle: Klucel (hydroxypropylcellulose) (HPC)
[6] = dose: 100.0 mg/kg/injection, schedule: Q01DX001 (ip), vehicle: saline with Tween-80
[7] = dose: 200.0 mg/kg/injection, schedule: Q01DX001 (ip), vehicle: saline with Tween-80
[8] = dose: 200.0 mg/kg/injection, schedule: Q01DX009 (ip), vehicle: Klucel (hydroxypropylcellulose) (HPC)
[9] = dose: 100.0 mg/kg/injection, schedule: Q04DX003 (ip), vehicle: suspension in saline
[10] = dose: 200.0 mg/kg/injection, schedule: Q04DX003 (ip), vehicle: suspension in saline

`CN1CCC(C#N)(c2ccccn2)CC1` was tested, and the T/C (dose: 2.5 mg/kg/injection, schedule: Q01DX009 (ip), vehicle: saline) was 100 % of control, the T/C (dose: 5.0 mg/kg/injection, schedule: Q01DX009 (ip), vehicle: saline) was 109 % of control and the T/C (dose: 10.0 mg/kg/injection, schedule: Q01DX009 (ip), vehicle: saline) was 100 % of control.

With `O=C1Oc2ccccc2C(=O)C1=S1CCCC1` the T/C [1] was 98 % of control, the T/C [2] was 91 % of control and the T/C [3] was 94 % of control.

In the case of `CC(=O)OCC1OC(n2cc(F)c(=O)[nH]c2=O)C(OC(C)=O)C1OC(C)=O` (stereo not given), the T/C (dose: 1.56 mg/kg/injection, schedule: Q01DX009 (ip), vehicle: Klucel (hydroxypropylcellulose) (HPC)) is reported as 110 % of control, the T/C (dose: 6.25 mg/kg/injection, schedule: Q01DX009 (ip), vehicle: Klucel (hydroxypropylcellulose) (HPC)) is reported as 151 % of control and the T/C (dose: 12.5 mg/kg/injection, schedule: Q01DX009 (ip), vehicle: Klucel (hydroxypropylcellulose) (HPC)) is reported as 108 % of control. The T/C (dose: 25.0 mg/kg/injection, schedule: Q01DX009 (ip), vehicle: Klucel (hydroxypropylcellulose) (HPC)) was 89 % of control, the T/C [4] was 89 % of control and the T/C [5] was 88 % of control.

`O=C(O)c1ncn2c(=O)n(CCCl)nnc12` was tested, and the T/C (dose: 60.0 mg/kg/injection, schedule: Q01DX005 (ip), vehicle: Klucel (hydroxypropylcellulose) (HPC)) was 118 % of control.

For `O=c1c(N=Nc2ccc(Br)cc2)c(O)n(-c2ccc(Cl)cc2)c(=S)n1-c1ccc(Br)cc1`, the T/C [6] was 96 % of control, the T/C [7] was 95 % of control and the T/C (dose: 400.0 mg/kg/injection, schedule: Q01DX001 (ip), vehicle: saline with Tween-80) was 89 % of control.

For `ClC12CCC(c3ccccc3)(CC1)CC2`, the T/C [4] was 105 % of control, the T/C [5] was 108 % of control and the T/C [8] was 99 % of control.

For `CCn1cc(C(=O)O)c(=O)c2ccc(-c3cn[nH]c3C)nc21`, the T/C (dose: 50.0 mg/kg/injection, schedule: Q04DX003 (ip), vehicle: suspension in saline) was 106 % of control, the T/C [9] was 107 % of control and the T/C [10] was 106 % of control.

`COc1ccc(-c2coc3cc(OC4OC(COC5OCC(O)C(O)C5O)C(O)C(O)C4O)cc(O)c3c2=O)cc1` (stereo not given) was tested, and the T/C (dose: 25.0 mg/kg/injection, schedule: Q01DX009 (ip), vehicle: saline with Tween-80) was 103 % of control, the T/C (dose: 50.0 mg/kg/injection, schedule: Q01DX009 (ip), vehicle: saline with Tween-80) was 98 % of control and the T/C (dose: 100.0 mg/kg/injection, schedule: Q01DX009 (ip), vehicle: saline with Tween-80) was 102 % of control.

`CC12CC3(Br)CC(Br)(C1)CC(CC(=O)O)(C2)C3` was tested, and the T/C [4] was 103 % of control, the T/C [5] was 112 % of control and the T/C [8] was 112 % of control.

In the case of `CC(CCO)CCC(Br)C(C)(C)Br` (stereo not given), the T/C (dose: 50.0 mg/kg/injection, schedule: Q01DX005 (ip), vehicle: saline) is reported as 103 % of control, the T/C (dose: 100.0 mg/kg/injection, schedule: Q01DX005 (ip), vehicle: saline) is reported as 105 % of control and the T/C (dose: 200.0 mg/kg/injection, schedule: Q01DX005 (ip), vehicle: saline) is reported as 100 % of control.

`Nc1ccc(-c2nc3ccccc3[nH]2)cc1` was tested, and the T/C (dose: 50.0 mg/kg/injection, schedule: Q04DX003 (ip), vehicle: saline) was 100 % of control, the T/C (dose: 100.0 mg/kg/injection, schedule: Q04DX003 (ip), vehicle: saline) was 100 % of control and the T/C (dose: 200.0 mg/kg/injection, schedule: Q04DX003 (ip), vehicle: saline) was 96 % of control.

With `O=C1OCCOCCOCCOCCOC(=O)c2cccc1c2` the T/C [9] was 100 % of control, the T/C [10] was 104 % of control and the T/C (dose: 400.0 mg/kg/injection, schedule: Q04DX003 (ip), vehicle: suspension in saline) was 99 % of control.

`CCOc1cccc(/C=C2\NC(=S)N(c3ccccc3)C2=O)c1O` was tested, and the T/C [1] was 101 % of control, the T/C [2] was 93 % of control and the T/C [3] was 99 % of control.

In the case of `CC(=O)C1=C(N)OCCC1`, the T/C (dose: 50.0 mg/kg/injection, schedule: Q01DX009 (ip), vehicle: saline) is reported as 114 % of control, the T/C (dose: 100.0 mg/kg/injection, schedule: Q01DX009 (ip), vehicle: saline) is reported as 107 % of control and the T/C (dose: 200.0 mg/kg/injection, schedule: Q01DX009 (ip), vehicle: saline) is reported as 109 % of control.

`O/N=C\c1ccccc1P(c1ccccc1/C=N\O)c1ccccc1/C=N\O` was tested, and the T/C [6] was 87 % of control and the T/C [7] was 89 % of control.
